Residues, ends and D or L forms follow the SMILES beside them.
Tests used:
human NMUR2 receptor [1] = target: T1, human NMUR2 receptor (Homo sapiens, UniProt Q9GZQ4); test: IP1 Gq HTRF assay, activation of human NMUR2 in human plasma; assay type: cell-based; design: expressed in transfected cells; host or cells: CHO-K1; details: CHO-K1 cells expressing human NMUR2, 100% human plasma; read-out: EC50 (hNMUR2) human plasma
Description: Example 4: IP1 Gq HTRF Assay Activation of Human NMUR2 in Human Plasma Application of the Homogenous Time Resolved Fluorescence (HTRF) technology optimized for Gq coupled receptors has been described in detail in the Cisbio IP-One Gq kit manual. In brief, a FRET signal is generated between the donor label of an IP-One antibody (anti-IP1-Tb) and the acceptor label of a tagged IP-One (IP1-d2). Agonism of a Gq coupled receptor increases intracellular IP-One, which competes with labeled IP-One and leads to a reduction of the FRET signal. Frozen stocks of CHO-K1 cells stably expressing the human NMUR1 receptor or human NMUR2 receptor were thawed and 5000 cells were seeded in culture medium (HAM'S F12, 10% FCS) into each well of a 384-well assay plate. After seeding, cells were incubated for 24 h in a humidified incubator at 37° C. and 5% CO2. Next, cells were washed once with […] of wash buffer (20 mM Hepes, 1×HBSS, pH 7.4), followed by addition of […] (100% human plasma, 50 mM LiCl). Peptide agonists to be tested were dissolved in 100% DMSO and pre-diluted in plasma at a suitable concentration range for an 8 pt dose-response curve. 5 μL of peptide pre-dilution were then added to each well, followed by another 5 μL of plasma to give a final concentration of 1% DMSO. Samples were subsequently incubated for 1 hour in a humidified incubator at 37° C. The plasma solution was replaced by 20 μL of stimulation buffer. After addition of 5 μL each of IP1-d2 and anti-IP1-Tb, samples were incubated for another 1 hour at room temperature and FRET signals (ratio 665 nm/620 nm) were measured. EC50 values were calculated by nonlinear regression using a 4-parameter sigmoidal curve fit.

human NMUR2 receptor [2] = target: T1, human NMUR2 receptor; test: IP1 Gq HTRF assay, activation of human NMUR2 in buffer; assay type: cell-based; design: expressed in transfected cells; host or cells: CHO-K1; details: CHO-K1 cells expressing human NMUR2, stimulation buffer with 0.1% BSA; read-out: EC50 (hNMUR2) buffer
Description: Example 3: IP1 Gq HTRF Assay Activation of Human NMUR2 or Human NMUR1 in Buffer Application of the Homogenous Time Resolved Fluorescence (HTRF) technology optimized for Gq coupled receptors has been described in detail in the Cisbio IP-One Gq kit manual. In brief, a FRET signal (FRET: fluorescence resonance energy transfer) is generated between the donor label of an IP-One antibody (anti-IP1-Tb) and the acceptor label of a tagged IP-One (IP1-d2). Agonism of a Gq coupled receptor increases intracellular IP-One, which competes with labeled IP-One and leads to a reduction of the FRET signal. Frozen stocks of CHO-K1 cells stably expressing the human NMUR1 or NMUR2 receptor were thawed and 5000 cells were seeded in culture medium (HAM'S F12, 10% FCS) into each well of a 384-well assay plate. After seeding, cells were incubated for 24 h in a humidified incubator at 37° C. and 5% CO2. Next, cells were washed once with 50 μL of wash buffer (20 mM Hepes, 1×HBSS, pH 7.4), followed by addition of either 10 μL of stimulation buffer (20 mM Hepes, 1×HBSS, 50 mM LiCl, 0.1% BSA, pH 7.4). Peptide agonists to be tested were dissolved in 100% DMSO and pre-diluted in stimulation buffer at a suitable concentration range for an 8 pt dose-response curve. 5 μL of peptide pre-dilution were then added to each well, followed by another 5 μL of stimulation buffer to give a final concentration of 1% DMSO. Samples were subsequently incubated for 1 hour in a humidified incubator at 37° C. After addition of 5 μL each of IP1-d2 and anti-IP1-Tb, samples were incubated for another 1 hour at room temperature and FRET signals (ratio 665 nm/620 nm) were measured. EC50 values were calculated by nonlinear regression using a 4-parameter sigmoidal curve fit.

T1 sequence (Q9GZQ4 whole entry): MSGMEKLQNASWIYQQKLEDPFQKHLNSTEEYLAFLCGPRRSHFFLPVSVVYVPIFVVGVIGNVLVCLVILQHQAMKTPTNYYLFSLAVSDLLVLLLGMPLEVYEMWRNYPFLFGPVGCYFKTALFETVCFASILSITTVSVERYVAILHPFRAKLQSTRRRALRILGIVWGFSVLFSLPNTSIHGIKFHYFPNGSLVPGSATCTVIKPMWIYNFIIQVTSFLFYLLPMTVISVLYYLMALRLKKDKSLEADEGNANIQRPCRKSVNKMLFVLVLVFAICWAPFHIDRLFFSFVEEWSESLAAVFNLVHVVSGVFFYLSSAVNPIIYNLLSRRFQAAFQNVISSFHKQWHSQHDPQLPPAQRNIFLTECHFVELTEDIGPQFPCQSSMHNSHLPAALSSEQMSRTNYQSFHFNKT

| Structure (SMILES) | EC50 (human NMUR2 receptor [1]) [nM] | EC50 (human NMUR2 receptor [2]) [nM] |
| --- | --- | --- |
| CCCC[C@H](NC(=O)[C@H](CC(C)C)N(C)C(=O)[C@H](Cc1ccccc1)NC(=O)[C@H](Cc1ccc(O)cc1)NC(=O)CN1CCN(CCNC(=O)CN(C)C(=O)CN(C)C(=O)CN(C)C(=O)CN(C)C(=O)CN(C)C(=O)CN(C)C(=O)CN(C)C(=O)CN(C)C(=O)CN(C)C(=O)CN(C)C(=O)CN(C)C(=O)CN(C)C(=O)CN(C)C(=O)CN(C)C(=O)CN(C)C(=O)CC[C@H](NC(=O)CC[C@H](NC(=O)CC[C@H](NC(=O)CC[C@H](NC(=O)CCCCCCCCCCCCCCCCCCC(=O)O)C(=O)O)C(=O)O)C(=O)O)C(=O)O)CC1)C(=O)N[C@@H](CCCCN)C(=O)N1CCC[C@H]1C(=O)N[C@@H](CCCNC(=N)N)C(=O)NCC(N)=O [Compound 17, C20DA-gGlu4-Sar15-AEPipAc-Tyr-Phe-NMeLeu-Nle-Lys-Pro-Arg-Gly-NH2] (HELM PEPTIDE1{[O=C(O)CCCCCCCCCCCCCCCCCCC(=O)[*:2]].[gGlu].[gGlu].[gGlu].[gGlu].[Sar].[Sar].[Sar].[Sar].[Sar].[Sar].[Sar].[Sar].[Sar].[Sar].[Sar].[Sar].[Sar].[Sar].[Sar].[O=C(CN1CCN(CCN[*:1])CC1)[*:2]].Y.F.[meL].[Nle].K.P.R.G.[am]}$$$$V2.0) | 24.8 | 4.7 |
| CCCC[C@H](NC(=O)[C@H](CC(C)C)N(C)C(=O)[C@H](Cc1ccccc1)NC(=O)[C@H](Cc1ccc(O)cc1)NC(=O)CN1CCN(CCNC(=O)CN(C)C(=O)CN(C)C(=O)CN(C)C(=O)CN(C)C(=O)CN(C)C(=O)CN(C)C(=O)CN(C)C(=O)CN(C)C(=O)CN(C)C(=O)CN(C)C(=O)CN(C)C(=O)CN(C)C(=O)CC[C@H](NC(=O)CC[C@H](NC(=O)CC[C@H](NC(=O)CC[C@H](NC(=O)CCCCCCCCCCCCCCCCCCC(=O)O)C(=O)O)C(=O)O)C(=O)O)C(=O)O)CC1)C(=O)N[C@@H](CCCN)C(=O)N1CCC[C@H]1C(=O)N[C@@H](CCCNC(=N)N)C(=O)NCC(N)=O [Compound 40, C20DA-gGlu4-Sar12-AEPipAc-Tyr-Phe-NMeLeu-Nle-Orn-Pro-Arg-Gly-NH2] | 11.3 | 4.5 |
| CCCC[C@H](NC(=O)[C@H](CC(C)C)N(C)C(=O)[C@H](Cc1ccccc1)NC(=O)[C@H](Cc1ccc(O)cc1)NC(=O)CN1CCN(CCNC(=O)CN(C)C(=O)CN(C)C(=O)CN(C)C(=O)CN(C)C(=O)CN(C)C(=O)CN(C)C(=O)CN(C)C(=O)CN(C)C(=O)CN(C)C(=O)CN(C)C(=O)CN(C)C(=O)CN(C)C(=O)CC[C@H](NC(=O)CC[C@H](NC(=O)CC[C@H](NC(=O)CCCCCCCCCCCCCCCCCCC(=O)O)C(=O)O)C(=O)O)C(=O)O)CC1)C(=O)N[C@@H](CCCNC(=N)N)C(=O)N(C)[C@@H](C)C(=O)N[C@@H](CCCNC(=N)N)C(=O)NCC(N)=O [Compound 63, C20DA-gGlu3-Sar12-AEPipAc-Tyr-Phe-NMeLeu-Nle-Arg-NMeAla-Arg-Gly-NH2] | 14.9 | 4.5 |
| CCCC[C@H](NC(=O)[C@H](CC(C)C)N(C)C(=O)[C@H](Cc1ccccc1)NC(=O)[C@H](Cc1ccc(O)cc1)NC(=O)CN1CCN(CCNC(=O)CN(C)C(=O)CN(C)C(=O)CN(C)C(=O)CN(C)C(=O)CN(C)C(=O)CN(C)C(=O)CN(C)C(=O)CN(C)C(=O)CN(C)C(=O)CC[C@H](NC(=O)CC[C@H](NC(=O)CCCCCCCCCCCCCCCCC(=O)O)C(=O)O)C(=O)O)CC1)C(=O)N[C@@H](CCCNC(=N)N)C(=O)N(C)[C@@H](C)C(=O)N[C@@H](CCCNC(=N)N)C(=O)NCC(N)=O [Compound 66, C18DA-gGlu2-Sar9-AEPipAc-Tyr-Phe-NMeLeu-Nle-Arg-NMeAla-Arg-Gly-NH2] (HELM PEPTIDE1{[O=C(O)CCCCCCCCCCCCCCCCC(=O)[*:2]].[gGlu].[gGlu].[Sar].[Sar].[Sar].[Sar].[Sar].[Sar].[Sar].[Sar].[Sar].[O=C(CN1CCN(CCN[*:1])CC1)[*:2]].Y.F.[meL].[Nle].R.[meA].R.G.[am]}$$$$V2.0) | 18.9 | 1.6 |
| CCCC[C@H](NC(=O)[C@H](CC(C)C)N(C)C(=O)[C@H](Cc1ccccc1)NC(=O)[C@H](Cc1ccc(O)cc1)NC(=O)CN1CCN(CCNC(=O)CN(C)C(=O)CN(C)C(=O)CN(C)C(=O)CN(C)C(=O)CN(C)C(=O)CN(C)C(=O)CN(C)C(=O)CN(C)C(=O)CN(C)C(=O)CC[C@H](NC(=O)CC[C@H](NC(=O)CCCCCCCCCCCCCCCCC(=O)O)C(=O)O)C(=O)O)CC1)C(=O)N[C@@H](CCCNC(=N)N)C(=O)N1CCC[C@H]1C(=O)N[C@@H](CCCNC(=N)N)C(=O)NCC(N)=O [Compound 67, C18DA-gGlu2-Sar9-AEPipAc-Tyr-Phe-NMeLeu-Nle-Arg-Pro-Arg-Gly-NH2] (HELM PEPTIDE1{[O=C(O)CCCCCCCCCCCCCCCCC(=O)[*:2]].[gGlu].[gGlu].[Sar].[Sar].[Sar].[Sar].[Sar].[Sar].[Sar].[Sar].[Sar].[O=C(CN1CCN(CCN[*:1])CC1)[*:2]].Y.F.[meL].[Nle].R.P.R.G.[am]}$$$$V2.0) | 9.9 | 0.9 |

Now from value to compound:

| EC50 (human NMUR2 receptor [1]) [nM] | EC50 (human NMUR2 receptor [2]) [nM] | Structure (SMILES) |
| --- | --- | --- |
| 10 | 1.8 | CCCC[C@H](NC(=O)[C@H](CC(C)C)N(C)C(=O)[C@H](Cc1ccccc1)NC(=O)[C@H](Cc1ccc(O)cc1)NC(=O)CN1CCN(CCNC(=O)CN(C)C(=O)CN(C)C(=O)CN(C)C(=O)CN(C)C(=O)CN(C)C(=O)CN(C)C(=O)CN(C)C(=O)CN(C)C(=O)CN(C)C(=O)CN(C)C(=O)CN(C)C(=O)CN(C)C(=O)CC[C@H](NC(=O)CC[C@H](NC(=O)CC[C@H](NC(=O)CC[C@H](NC(=O)CCCCCCCCCCCCCCCCC(=O)O)C(=O)O)C(=O)O)C(=O)O)C(=O)O)CC1)C(=O)N[C@@H](CCCN)C(=O)N1CCC[C@H]1C(=O)N[C@@H](CCCNC(=N)N)C(=O)NCC(N)=O [Compound 5, C18DA-gGlu4-Sar12-AEPipAc-Tyr-Phe-NMeLeu-Nle-Orn-Pro-Arg-Gly-NH2] |
| 10.8 | 3.2 | CCCC[C@H](NC(=O)[C@H](CC(C)C)N(C)C(=O)[C@H](Cc1ccccc1)NC(=O)[C@H](Cc1ccc(O)cc1)NC(=O)CN1CCN(CCNC(=O)CN(C)C(=O)CN(C)C(=O)CN(C)C(=O)CN(C)C(=O)CN(C)C(=O)CN(C)C(=O)CN(C)C(=O)CN(C)C(=O)CN(C)C(=O)CN(C)C(=O)CN(C)C(=O)CN(C)C(=O)CC[C@H](NC(=O)CC[C@H](NC(=O)CC[C@H](NC(=O)CC[C@H](NC(=O)CCCCCCCCCCCCCCCCCCC(=O)O)C(=O)O)C(=O)O)C(=O)O)C(=O)O)CC1)C(=O)N[C@@H](CCN)C(=O)N1CCC[C@H]1C(=O)N[C@@H](CCCNC(=N)N)C(=O)NCC(N)=O [Compound 15, C20DA-gGlu4-Sar12-AEPipAc-Tyr-Phe-NMeLeu-Nle-Dbu-Pro-Arg-Gly-NH2] |
| 5.2 | 0.8 | CCCC[C@H](NC(=O)[C@H](CC(C)C)N(C)C(=O)[C@H](Cc1ccccc1)NC(=O)[C@H](Cc1ccc(O)cc1)NC(=O)CN1CCN(C(=O)CN(C)C(=O)CN(C)C(=O)CN(C)C(=O)CN(C)C(=O)CN(C)C(=O)CN(C)C(=O)CN(C)C(=O)CN(C)C(=O)CN(C)C(=O)CN(C)C(=O)CN(C)C(=O)CN(C)C(=O)CC[C@H](NC(=O)CC[C@H](NC(=O)CC[C@H](NC(=O)CCCCCCCCCCCCCCCCC(=O)O)C(=O)O)C(=O)O)C(=O)O)CC1)C(=O)N[C@@H](CCCNC(=N)N)C(=O)N1CCC[C@H]1C(=O)N[C@@H](CCCNC(=N)N)C(=O)NCC(N)=O [Compound 77, C18DA-gGlu3-Sar12-PipAc-Tyr-Phe-NMeLeu-Nle-Arg-Pro-Arg-Gly-NH2] |

Reference: patent publication US20240279278A1, “NMU RECEPTOR 2 AGONISTS” (Boehringer Ingelheim International GmbH, priority 2023, published 2024)
